Results: the supplement of paper PMC10307832

Key:
Experiment in all cases: relative viability (nuclei count vs DMSO), 5 days (fraction); higher = more cells survive
NCI-H322M = test system: NCI-H322M
In short: (§1)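 Relative viability divides the nuclei count in treated wells by that in vehicle wells. Lung cancer cell lines were seeded in 1536-well plates, dosed by pin tool the next day, and fixed and stained after 5 days in one step with final 0.05% Triton X-100, 1% formaldehyde and 1 ug/ml Hoechst. Dosing was a single drug or a fixed anchor-drug dose plus five library-drug doses (not always all listed) in √10 steps, and values are medians of duplicate plates imaged at 4×.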

NCI-H522 = test system: NCI-H522
In short: as §1

NCI-H1755 = test system: NCI-H1755
In short: as §1

RERF-LC-KJ = test system: RERF-LC-KJ
In short: as §1

SW 900 = test system: SW 900
In short: as §1

NCI-H520 = test system: NCI-H520
In short: as §1

NCI-H3122 = test system: NCI-H3122
In short: as §1

LXF-289 = test system: LXF-289
In short: as §1

NCI-H441 = test system: NCI-H441
In short: as §1

LCLC-103H = test system: LCLC-103H
In short: as §1

NCI-H1355 = test system: NCI-H1355
In short: as §1

## COc1cc2nccc(Oc3ccc(NC(=O)Nc4cc(C)on4)c(Cl)c3)c2cc1OC [Tivozanib] + Nc1ncn([C@H]2C[C@H](O)[C@@H](CO)O2)c(=O)n1 [Decitabine] (partner 2 µM)
NCI-H322M; first compound 0.005 µM
  relative viability: 0.632
NCI-H322M; first compound 0.01581 µM
  relative viability: 0.55
NCI-H322M; first compound 0.05 µM
  relative viability: 0.762
NCI-H322M; first compound 0.1581 µM
  relative viability: 0.656
NCI-H322M; first compound 0.5 µM
  relative viability: 0.686
NCI-H522; first compound 0.005 µM
  relative viability: 0.702
NCI-H522; first compound 0.01581 µM
  relative viability: 0.68
NCI-H522; first compound 0.05 µM
  relative viability: 0.696
NCI-H522; first compound 0.1581 µM
  relative viability: 0.665
NCI-H522; first compound 0.5 µM
  relative viability: 0.577
NCI-H1755; first compound 0.005 µM
  relative viability: 0.716
NCI-H1755; first compound 0.01581 µM
  relative viability: 0.74
NCI-H1755; first compound 0.05 µM
  relative viability: 0.688
NCI-H1755; first compound 0.1581 µM
  relative viability: 0.744
NCI-H1755; first compound 0.5 µM
  relative viability: 0.704
RERF-LC-KJ; first compound 0.005 µM
  relative viability: 0.585
RERF-LC-KJ; first compound 0.01581 µM
  relative viability: 0.646
RERF-LC-KJ; first compound 0.05 µM
  relative viability: 0.657
RERF-LC-KJ; first compound 0.1581 µM
  relative viability: 0.637
RERF-LC-KJ; first compound 0.5 µM
  relative viability: 0.723
SW 900; first compound 0.005 µM
  relative viability: 0.454
SW 900; first compound 0.01581 µM
  relative viability: 0.411
SW 900; first compound 0.05 µM
  relative viability: 0.454
SW 900; first compound 0.5 µM
  relative viability: 0.389
NCI-H520; first compound 0.005 µM
  relative viability: 0.442
NCI-H520; first compound 0.01581 µM
  relative viability: 0.448
NCI-H520; first compound 0.05 µM
  relative viability: 0.444
NCI-H520; first compound 0.1581 µM
  relative viability: 0.56
NCI-H520; first compound 0.5 µM
  relative viability: 0.351
NCI-H3122; first compound 0.005 µM
  relative viability: 0.462
NCI-H3122; first compound 0.01581 µM
  relative viability: 0.427
NCI-H3122; first compound 0.05 µM
  relative viability: 0.429
NCI-H3122; first compound 0.1581 µM
  relative viability: 0.401
NCI-H3122; first compound 0.5 µM
  relative viability: 0.563
LXF-289; first compound 0.005 µM
  relative viability: 0.331
LXF-289; first compound 0.01581 µM
  relative viability: 0.363
LXF-289; first compound 0.05 µM
  relative viability: 0.35
LXF-289; first compound 0.1581 µM
  relative viability: 0.346
LXF-289; first compound 0.5 µM
  relative viability: 0.404
NCI-H441; first compound 0.005 µM
  relative viability: 0.262
NCI-H441; first compound 0.01581 µM
  relative viability: 0.25
NCI-H441; first compound 0.05 µM
  relative viability: 0.218
NCI-H441; first compound 0.1581 µM
  relative viability: 0.281
NCI-H441; first compound 0.5 µM
  relative viability: 0.224
LCLC-103H; first compound 0.005 µM
  relative viability: 0.615
LCLC-103H; first compound 0.01581 µM
  relative viability: 0.708
LCLC-103H; first compound 0.05 µM
  relative viability: 0.732
LCLC-103H; first compound 0.1581 µM
  relative viability: 0.685
LCLC-103H; first compound 0.5 µM
  relative viability: 0.744
NCI-H1355; first compound 0.005 µM
  relative viability: 0.318
NCI-H1355; first compound 0.01581 µM
  relative viability: 0.314
